Where only a bound is given, the exact number is not on record here.

Sequence of HCV NS5B polymerase (P26663 2420-3010): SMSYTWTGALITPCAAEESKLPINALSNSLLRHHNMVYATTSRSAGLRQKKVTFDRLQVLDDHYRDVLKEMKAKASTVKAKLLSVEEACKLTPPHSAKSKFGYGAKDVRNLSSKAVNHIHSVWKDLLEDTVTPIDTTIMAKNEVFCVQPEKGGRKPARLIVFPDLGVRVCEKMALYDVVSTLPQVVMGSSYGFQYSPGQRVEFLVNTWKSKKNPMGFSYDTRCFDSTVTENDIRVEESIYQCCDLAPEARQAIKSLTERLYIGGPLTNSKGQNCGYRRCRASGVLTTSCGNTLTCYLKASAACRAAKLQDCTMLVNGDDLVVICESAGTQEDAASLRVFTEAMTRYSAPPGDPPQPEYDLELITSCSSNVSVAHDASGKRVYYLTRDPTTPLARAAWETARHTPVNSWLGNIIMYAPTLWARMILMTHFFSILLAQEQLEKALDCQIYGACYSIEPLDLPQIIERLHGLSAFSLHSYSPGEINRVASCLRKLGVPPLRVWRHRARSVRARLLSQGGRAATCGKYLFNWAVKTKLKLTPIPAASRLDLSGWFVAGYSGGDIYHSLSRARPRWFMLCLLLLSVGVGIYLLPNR

The test addresses HCV NS5B polymerase (Hepatitis C virus genotype 1b, UniProt P26663). Briefly: biochemical. The note with it: HCV polymerase inhibition, 50 nM enzyme, 2 h at room temperature, FlashPlate [α-33P]GTP incorporation. On the procedure: NS5B Polymerase Inhibition Assay (IC50)
Compounds were tested for HCV polymerase inhibition. Assays were performed in a 96-well streptavidin-coated FlashPlate using 50 nM enzyme, 0.5 μCi of [α-^33P]GTP, 0.6 μM GTP, and 50 nM 5′biotinylated oligo (rG13)/poly rC in 20 mM Tris-HCl, pH 7.5, 5 mM MgCl2, 20 mM NaCl, 5 mM dithiothreitol, and 0.1 g/L BSA. The reaction was stopped by aspiration after 2 h at room temperature and the plate was washed several times. After washing, incorporated radioactivity was counted using a Microbeta scintillation counter.
`CC(C)(C)Cn1nc(-c2cccs2)c(O)c(C2=Nc3ccc(NS(C)(=O)=O)cc3S(=O)(=O)N2)c1=O` [N-{3-[2-(2,2-Dimethyl-propyl)-5-hydroxy-3-oxo-6-thiophen-2-yl-2,3-dihydro-pyridazin-4-yl]-1,1-dioxo-1,2-dihydro-1λ^6-benzo[1,2,4]thiadiazin-7-yl}-methanesulfonamide] showed an IC50 of less than 100 nM.
The value for `CC(C)CCn1nc(-c2cccs2)c(O)c(C2=Nc3ccc(N(C(=O)OC(C)C)S(C)(=O)=O)cc3S(=O)(=O)N2)c1=O` [N-({3-[5-hydroxy-2-(3-methyl-butyl)-3-oxo-6-thiophen-2-yl-2,3-dihydro-pyridazin-4-yl]-1,1-dioxo-1,2-dihydro-1λ^6-benzo[1,2,4]thiadiazin-7-yl}-N-methanesulfonyl)-isopropylcarbamate] was 100 to 1000 nM; that for `O=C(NS(=O)(=O)Nc1ccc2c(c1)S(=O)(=O)NC(c1c(O)c(-c3cncs3)nn(CC3CCC3)c1=O)=N2)OCc1ccccc1` [N-[3-(2-Cyclobutylmethyl-5-hydroxy-3-oxo-6-thiazol-5-yl-2,3-dihydro-pyridazin-4-yl)-1,1-dioxo-1,2-dihydro-1λ^6-benzo[1,2,4]thiadiazin-7-yl]-3-carbamic-acid-benzyl-ester-sulfamide] was less than 100 nM; that for `CCS(=O)(=O)Nc1ccc2c(c1)S(=O)(=O)NC(c1c(O)c(-c3cncs3)nn(CCC(C)C)c1=O)=N2` [Ethanesulfonic acid {3-[5-hydroxy-2-(3-methyl-butyl)-3-oxo-6-thiazol-5-yl-2,3-dihydro-pyridazin-4-yl]-1,1-dioxo-1,2-dihydro-1λ^6-benzo[1,2,4]thiadiazin-7-yl}-amide] was less than 100 nM.
As for `CC(C)CCn1nc(-c2cccs2)c(O)c(C2=NS(=O)(=O)c3cc(NS(=O)(=O)C(C)C)ccc3N2)c1=O` [Propane-2-sulfonic acid {3-[5-hydroxy-2-(3-methyl-butyl)-3-oxo-6-thiophen-2-yl-2,3-dihydro-pyridazin-4-yl]-1,1-dioxo-1,2-dihydro-1λ^6-benzo[1,2,4]thiadiazin-7-yl}-amide], the IC50 is less than 100 nM.
The value for `CCC(C)n1nc(-c2cccs2)c(O)c(C2=NS(=O)(=O)c3cc(NS(C)(=O)=O)ccc3N2)c1=O` (centres unmarked) [N-[3-(2-sec-Butyl-5-hydroxy-3-oxo-6-thiophen-2-yl-2,3-dihydro-pyridazin-4-yl)-1,1-dioxo-1,2-dihydro-1λ^6-benzo[1,2,4]thiadiazin-7-yl]-methanesulfonamide] was 100 to 1000 nM; that for `CC(C)CCn1nc(-c2cccs2)c(O)c(C2=Nc3ccc(/C=C/S(C)(=O)=O)cc3S(=O)(=O)N2)c1=O` [5-Hydroxy-4-[7-(2-methanesulfonyl-vinyl)-1,1-dioxo-1,2-dihydro-1λ^6-benzo[1,2,4]thiadiazin-3-yl]-2-(3-methyl-butyl)-6-thiophen-2-yl-2H-pyridazin-3-one] was 100 to 1000 nM.
`CC(C)=Cc1nn(CCC(C)C)c(=O)c(C2=NS(=O)(=O)c3cc(NS(C)(=O)=O)ccc3N2)c1O` [N-{3-[5-Hydroxy-2-(3-methyl-butyl)-6-(2-methyl-propenyl)-3-oxo-2,3-dihydro-pyridazin-4-yl]-1,1-dioxo-1,2-dihydro-1λ^6-benzo[1,2,4]thiadiazin-7-yl}-methanesulfonamide] yielded an IC50 of less than 100 nM.
Next, `CC(C)S(=O)(=O)Nc1ccc2c(c1)S(=O)(=O)NC(c1c(O)c(-c3cccs3)nn(CCC3CC3)c1=O)=N2` [Propane-2-sulfonic acid {3-[2-(2-cyclopropyl-ethyl)-5-hydroxy-3-oxo-6-thiophen-2-yl-2,3-dihydro-pyridazin-4-yl]-1,1-dioxo-1,2-dihydro-1λ^6-benzo[1,2,4]thiadiazin-7-yl}-amide]: less than 100 nM.
The value for `CC(C)(C)CCn1nc(-c2cccs2)c(O)c(C2=NS(=O)(=O)c3cc(N(COC(=O)C(C)(C)C)S(C)(=O)=O)ccc3N2)c1=O` [2,2-Dimethyl-propionic acid ({3-[2-(3,3-dimethyl-butyl)-5-hydroxy-3-oxo-6-thiophen-2-yl-2,3-dihydro-pyridazin-4-yl]-1,1-dioxo-1,2-dihydro-1λ^6-benzo[1,2,4]thiadiazin-7-yl}-methanesulfonyl-amino)-methylester] was 100 to 1000 nM; that for `CC(C)CCn1nc(-c2cccs2)c(O)c(C2=Nc3ccc(N(C(C)C)S(C)(=O)=O)cc3S(=O)(=O)N2)c1=O` [N-{3-[5-Hydroxy-2-(3-methyl-butyl)-3-oxo-6-thiophen-2-yl-2,3-dihydro-pyridazin-4-yl]-1,1-dioxo-1,2-dihydro-1λ^6-benzo[1,2,4]thiadiazin-7-yl}-N-isopropyl-methanesulfonamide] was 1000 to 10000 nM; that for `CC(C)CCn1nc(-c2ccn(C)c2)c(O)c(C2=Nc3ccc(NS(C)(=O)=O)cc3S(=O)(=O)N2)c1=O` [N-{3-[5-Hydroxy-2-(3-methyl-butyl)-6-(1-methyl-1H-pyrrol-3-yl)-3-oxo-2,3-dihydro-pyridazin-4-yl]-1,1-dioxo-1,2-dihydro-1λ^6-benzo[1,2,4]thiadiazin-7-yl}-methanesulfonamide] was less than 100 nM.
Next, `CCC(C)CCn1nc(-c2cccs2)c(O)c(C2=NS(=O)(=O)c3cc(NS(C)(=O)=O)ccc3N2)c1=O` (centres unmarked) [N-{3-[5-Hydroxy-2-(3-methyl-pentyl)-3-oxo-6-thiophen-2-yl-2,3-dihydro-pyridazin-4-yl]-1,1-dioxo-1,2-dihydro-1λ^6-benzo[1,2,4]thiadiazin-7-yl}-methanesulfonamide]: less than 100 nM.
For the compound `CC(C)CCn1nc(-c2cccs2)c(OCOC(=O)C(C)(C)C)c(C2=Nc3ccc(N(C)S(C)(=O)=O)cc3S(=O)(=O)N2)c1=O` [2,2-Dimethyl-propionic acid 5-[7-(methanesulfonyl-methyl-amino)-1,1-dioxo-1,2-dihydro-1λ^6-benzo[1,2,4]thiadiazin-3-yl]-1-(3-methyl-butyl)-6-oxo-3-thiophen-2-yl-1,6-dihydro-pyridazin-4-yloxymethyl ester], the IC50 lay in the range of 1000 to 10000 nM.
`CS(=O)(=O)Nc1ccc2c(c1)S(=O)(=O)N=C(c1c(O)c(-c3cccs3)nn(CC3(C(F)(F)F)CC3)c1=O)N2` [N-{3-[5-Hydroxy-3-oxo-6-thiophen-2-yl-2-(1-trifluoromethyl-cyclopropylmethyl)-2,3-dihydro-pyridazin-4-yl]-1,1-dioxo-1,2-dihydro-1λ^6-benzo[1,2,4]thiadiazin-7-yl}-methanesulfonamide] gave an IC50 of less than 100 nM.
The value for `CC(C)CCn1nc(-c2cccs2)c(OC(=O)C(C)C)c(C2=Nc3ccc(N(C)S(C)(=O)=O)cc3S(=O)(=O)N2)c1=O` [Isobutyric acid 5-[7-(methanesulfonyl-methyl-amino)-1,1-dioxo-1,2-dihydro-1λ^6-benzo[1,2,4]thiadiazin-3-yl]-1-(3-methyl-butyl)-6-oxo-3-thiophen-2-yl-1,6-dihydro-pyridazin-4-yl ester] was 1000 to 10000 nM.
The value for `CS(=O)(=O)Nc1ccc2c(c1)S(=O)(=O)NC(c1c(O)c(-c3ccccc3)nn(CC3CC3)c1=O)=N2` [N-[3-(2-Cyclopropylmethyl-5-hydroxy-3-oxo-6-phenyl-2,3-dihydro-pyridazin-4-yl)-1,1-dioxo-1,2-dihydro-1l6-benzo[1,2,4]thiadiazin-7-yl]-methanesulfonamide] was 100 to 1000 nM; that for `CS(=O)(=O)Nc1ccc2c(c1)S(=O)(=O)NC(c1c(O)c(-c3cccs3)nn(CC3CCC3)c1=O)=N2` [N-[3-(2-Cyclobutylmethyl-5-hydroxy-3-oxo-6-thiophen-2-yl-2,3-dihydro-pyridazin-4-yl)-1,1-dioxo-1,2-dihydro-1λ^6-benzo[1,2,4]thiadiazin-7-yl]-methanesulfonamide] was less than 100 nM.
The value for `CC(C)CCn1nc(-c2cncs2)c(O)c(C2=Nc3ccc(N(CCO)S(C)(=O)=O)cc3S(=O)(=O)N2)c1=O` [N-(2-Hydroxy-ethyl)-N-{3-[5-hydroxy-2-(3-methyl-butyl)-3-oxo-6-thiazol-5-yl-2,3-dihydro-pyridazin-4-yl]-1,1-dioxo-1,2-dihydro-1λ^6-benzo[1,2,4]thiadiazin-7-yl}-methanesulfonamide] was 100 to 1000 nM; that for `COCCn1nc(-c2cccs2)c(O)c(C2=NS(=O)(=O)c3cc(NS(C)(=O)=O)ccc3N2)c1=O` [N-{3-[5-Hydroxy-2-(2-methoxy-ethyl)-3-oxo-6-thiophen-2-yl-2,3-dihydro-pyridazin-4-yl]-1,1-dioxo-1,2-dihydro-1λ^6-benzo[1,2,4]thiadiazin-7-yl}-methanesulfonamide] was less than 100 nM.
For the compound `CS(=O)(=O)Nc1ccc2c(c1)S(=O)(=O)N=C(c1c(O)c(-c3cccs3)nn(CCC3CCCCC3)c1=O)N2` [N-{3-[2-(2-Cyclohexyl-ethyl)-5-hydroxy-3-oxo-6-thiophen-2-yl-2,3-dihydro-pyridazin-4-yl]-1,1-dioxo-1,2-dihydro-1λ^6-benzo[1,2,4]thiadiazin-7-yl}-methanesulfonamide], the concentration for half-maximal inhibition (IC50) fell in the range of 100 to 1000 nM.
`CCS(=O)(=O)Nc1ccc2c(c1)S(=O)(=O)NC(c1c(O)c(-c3cccs3)nn(CCC(C)C)c1=O)=N2` [Ethanesulfonic acid {3-[5-hydroxy-2-(3-methyl-butyl)-3-oxo-6-thiophen-2-yl-2,3-dihydro-pyridazin-4-yl]-1,1-dioxo-1,2-dihydro-1λ^6-benzo[1,2,4]thiadiazin-7-yl}-amide] came in with an IC50 of less than 100 nM.
The value for `CS(=O)(=O)Nc1ccc2c(c1)S(=O)(=O)N=C(c1c(O)c(-c3cccs3)nn(CCC3CCCC3)c1=O)N2` [N-{3-[2-(2-Cyclopentyl-ethyl)-5-hydroxy-3-oxo-6-thiophen-2-yl-2,3-dihydro-pyridazin-4-yl]-1,1-dioxo-1,2-dihydro-1λ^6-benzo[1,2,4]thiadiazin-7-yl}-methanesulfonamide] was less than 100 nM.

Values taken from patent publication US20080275032A1, “Pyridazinone compounds” (priority 2006, published 2008).
